Data from US20040152786A1, “Preventive or remedy for diseases caused by cerebrovascular disturbances” (priority 2003, published 2004).

Legend:
[1] = tested on: middle-cerebral-artery permanently-occluded rat model; assay: Infarct lesion area and volume, middle-cerebral-artery permanently-occluded rat model; assay type: in vivo
Description: An influence of the cyclohexenone long-chain fatty alcoholic compound, which had been obtained in Preparation Example 2, on the area and volume of the infarct lesion caused by ischemia was studied using a middle-cerebral-artery permanently-occluded rat model.
The middle cerebral artery of an 8-week-old rat was electrically coagulated and occluded by a bipolar coagulator (MICRO-3D [Mizuho Co., Ltd.]). The compound obtained in Preparation Example 2 was intraperitoneally administered in an amount of 0.3 mg/kg, 2 mg/kg and 8 mg/kg rightly after the occlusion of the middle cerebral artery, respectively. After 24 hours, the brain was enucleated and cut into slices of 2 mm thick. Each slice was stained with 1% 2,3,5-triphenyltetrazolium chloride (TTC), followed by the taking of photos. The photograph was analyzed and the area of the infarct lesion was measured. The volume of the infarct lesion was calculated from the below-described equation. […]
a: infarct area (B+4) on the cross-section 4 mm forward from the forehead, b: infarct area (B+2) on the cross-section 2 mm forward from the forehead, c: infarct area (B) on the cross-section of the forehead, d: infarct area (B-2) on the cross-section 2 mm backward from the forehead, and e: infarct area (B-4) on the-cross-section 4 mm backward from the forehead.

[2] = tested on: ischemic re-perfusion rat model; assay: Infarct lesion area and volume, ischemic re-perfusion rat model; assay type: in vivo
Method: An influence of the cyclohexenone long-chain fatty alcoholic compound, which had been prepared in Preparation Example 2, on each of the area and volume of the infarct lesion was studied using an ischemic re-perfusion rat model.
The 8-week-old rats were occluded, at the middle brain artery thereof, with a nylon stopper for 2 hours, followed by intraperitoneal administration of the compound of Preparation Example 2 in amounts of 0.5 mg/kg, 2 mg/kg and 8 mg/kg, respectively, rightly before re-perfusion. After removal of the nylon stopper, re-perfusion was conducted. Twenty four hours after occlusion, the brain was enucleated and each of the area and volume of the infarct lesion was measured in a similar manner to Test 2.

[3] = intraperitoneal dose of 2 mg/kg
[4] = 2 hours occlusion, intraperitoneal 0.5, 2 and 8 mg/kg rightly before re-perfusion, 24 hours after occlusion

CC1=C(CCCCCCCCCCCCCCCO)C(C)(C)CCC1=O [Preparation Example 2, 3-(15-hydroxypentadecyl)-2,4,4-trimethyl-2-cyclohexen-1-one]
volume of the infarct lesion ([1]; intraperitoneal 0.3, 2 and 8 mg/kg rightly after occlusion, after 24 hours, V=a+2(b+c+d)+e): reduction | area of the infarct lesion ([1]; intraperitoneal 0.3, 2 and 8 mg/kg rightly after occlusion, brain taken after 24 hours, TTC staining): reduction | brain protective action [1, 3]: marked brain protective action | area of the infarct lesion [2, 4]: reduction | volume of the infarct lesion [2, 4]: reduction | brain protective action [2, 3]: marked brain protective action
